Measurements: US10059945B2, “Methods of controlling cell fate and consequences for disease” (THE GENERAL HOSPITAL CORPORATION, priority 2014, dated 2018)

Tested on: reprogrammable MEFs
Experiment: alkaline phosphatase-positive (AP+) transgene-independent iPSC colony formation
Type: cell-based, mouse
Conditions: 4-factor reprogrammable cells, doxycycline
Experimental: Transfections of RepMEFs with siRNAs were performed in 12-well plates at the time of dox administration. Per 12-well plate, 2 ul of Lipofectamine™ 2000 was added to 75 ul of Optimem™ (Life Technologies™) and 1.5 ul of siRNA (esiRNA, Sigma™) was added to 75 ul of Optimem™; both mixtures were separately incubated at room temperature for 5 minutes, then combined and incubated for another 15 minutes before adding the solution to the reprogramming media (normal media lacking antibiotics). After overnight incubation, the transfection media was replaced with regular reprogramming media.

Row | Structure (SMILES) | generation of AP+ iPSC colonies, small molecules vs knockdown alone
1 | O=C1O[C@H]([C@@H](O)CO)C(O)=C1O [ascorbic acid, L-Ascorbic acid] | significantly enhanced
2 | Cc1c[nH]c(-c2cnc(NCCNc3ccc(C#N)cn3)nc2-c2ccc(Cl)cc2Cl)n1 [Gsk3 inhibitor, CHIR99021] | significantly enhanced
